Data set [1] is described as follows: Assay for Brain Penetrance. Particulars: brain and plasma, rat, single intravenous dose 1 mg/kg, read-out: brain to plasma ratio. Type of data set: in vivo. How it is done:
Each rat received a single intravenous dose at a level of 1 mg/kg. The dose was formulated in 10% DMSO/50% PEG200/40% sterile water. Terminal blood samples were taken at 5 or 15 mins after dosing, by cardiac puncture following anaesthesia with isofluorane. The brains were removed at the same time point.
The compounds were extracted from 20 μL plasma by protein precipitation using 120 μL acetonitrile containing an analogue compound as an internal standard. The filtered extracts were collected into a 96 well plate and were diluted with an equal volume of 10% acetonitrile containing 0.1% formic acid in water (v/v). The plate was then mixed on a plate shaker for at least 5 mins before analysis by LC-MS/MS against a calibration line prepared in control plasma.
Each brain was weighed, then homogenised in 3 ml acetonitrile:water (10:90v/v). The compounds were extracted from 200 μL of the resulting homogenate by protein precipitation using 600 μL acetonitrile containing an analogue compound as an internal standard. The extracts were centrifuged and 150 μl of each was filtered and transferred to a 96 well plate. The aliquot was diluted with 10% acetonitrile containing 0.1% formic acid in water (v/v). The plate was mixed on a plate shaker for at least 5 mins before analysis by LC-MS/MS against a calibration line prepared in control brain homogenate.

The target of data set [2] is T1, GR (Homo sapiens, UniProt P04150).
T1 construct: endogenous in cells; host or cells: A549 (human lung carcinoma, ECACC No. 86012804), stably transfected with reporter plasmids only
T1 sequence (P04150 1-777): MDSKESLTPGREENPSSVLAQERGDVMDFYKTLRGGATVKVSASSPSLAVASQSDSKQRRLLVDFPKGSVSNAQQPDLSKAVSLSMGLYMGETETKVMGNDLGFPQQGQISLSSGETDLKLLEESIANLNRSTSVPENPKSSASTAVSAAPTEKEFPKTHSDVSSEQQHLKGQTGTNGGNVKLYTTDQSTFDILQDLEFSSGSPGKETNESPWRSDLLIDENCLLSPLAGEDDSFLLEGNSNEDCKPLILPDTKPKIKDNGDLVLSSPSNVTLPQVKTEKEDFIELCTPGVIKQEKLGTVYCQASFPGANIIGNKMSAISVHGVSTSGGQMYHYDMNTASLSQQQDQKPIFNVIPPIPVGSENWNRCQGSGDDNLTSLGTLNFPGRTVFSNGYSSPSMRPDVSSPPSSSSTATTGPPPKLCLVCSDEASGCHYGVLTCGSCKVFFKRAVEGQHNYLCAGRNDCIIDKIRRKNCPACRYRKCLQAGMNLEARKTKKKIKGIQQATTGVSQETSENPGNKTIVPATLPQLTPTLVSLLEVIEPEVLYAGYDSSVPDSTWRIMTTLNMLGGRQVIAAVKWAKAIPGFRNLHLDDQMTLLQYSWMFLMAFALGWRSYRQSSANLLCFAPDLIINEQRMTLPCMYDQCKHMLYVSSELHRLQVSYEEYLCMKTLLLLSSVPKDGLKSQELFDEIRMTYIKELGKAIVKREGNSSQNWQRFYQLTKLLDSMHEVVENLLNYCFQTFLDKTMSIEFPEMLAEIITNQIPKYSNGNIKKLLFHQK
The experiment in a line: GR Functional Assay - NFκB Assay (A549 SPAP cells, TNFα stimulated). The data set is classed as cell-based. To be noted: for Emax: agonists, read-out: average maximum asymptote in the NFkB assay. The essentials:
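Stably transfected A549 SPAP cells at 0.16×10^6/ml in DMEM with 10% FCS were added to compound and stimulated with TNFα to drive NFκB-dependent SPAP expression. After 1 hr equilibration at room temperature, SPAP was read colorimetrically with pNPP in diethanolamine buffer, pH 9.8.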

Data set [3] deals with T1, GR. As to the kind of experiment: GR Agonist Assay - MMTV Assay (A549 MMTV cells, renilla luciferase reporter). The data set is classed as cell-based. To be noted: 6 h, agonists, read-out: average maximum asymptote in the MMTV agonist assay. The essentials:
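Stably transfected A549 MMTV cells carry a GR-driven luciferase reporter. Cells at 0.1×10^6/ml in DMEM with 10% FCS and 25 mM HEPES were added to wells containing compound. After detection reagent, plates were held about 15 mins at room temperature and luminescence was read.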

Another data set concerns the target T2, glucocorticoid receptor (Homo sapiens, UniProt P04150).
T2 construct: a partially purified full length glucocorticoid receptor
T2 sequence (P04150 1-777): T1 sequence (P04150 1-777)
As to the kind of experiment: Glucocorticoid Receptor Binding Assay (fluorescence polarisation, displacement of Alexa 555 labelled dexamethasone derivative). Particulars: at least once in this assay; read-out: glucocorticoid binding pIC50 (converted). In outline:
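Partially purified full-length GR incubated with test compound and fluorescent dexamethasone plus GR-stabilising buffer components, 2 hr at room temperature in the dark. Binding scored as displacement of tracer, read as decrease in fluorescence polarisation.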

[4] abbreviates: at least once in the NFkB assay, A549 SPAP cells, read-out: pIC50 in the NFkB assay (converted).
Where [5] appears, read: at least once, examples listed as agonists in NFkB and MMTV assays, read-out: potency pIC50 in the NFKB assay (converted).

Read-outs that look alike come from different tables or passages of the source.

With `CCN(CC(O)(CNC(=O)c1cnn(-c2ccc(F)cc2)c1N)C(F)(F)F)C(=O)c1cccc(F)c1F` (racemic) [Example 5 (racemic), 5-Amino-N-(2-{[[(2,3-difluorophenyl)carbonyl](ethyl)amino]methyl}-3,3,3-trifluoro-2-hydroxypropyl)-1-(4-fluorophenyl)-1H-pyrazole-4-carboxamide], the Kp at 5 min in data set [1] is at least 0.1. For the same molecule, the Emax at GR [2] (A549 SPAP cells) and at GR [3] was at least 40% in each case. The IC50 at GR [2] (setting [4]) is below 1 µM; at GR [2] (setting [5]), below 0.316 µM; at glucocorticoid receptor, below 1 µM.

For the molecule `Nc1c(C(=O)NCC(O)(CN(CCF)C(=O)c2ccccc2)C(F)(F)F)cnn1-c1ccc(F)cc1` (racemic) [Example 1 (racemic), 5-Amino-1-(4-fluorophenyl)-N-(3,3,3-trifluoro-2-{[(2-fluoroethyl)(phenylcarbonyl)amino]methyl}-2-hydroxypropyl)-1H-pyrazole-4-carboxamide], the Kp at 5 min in data set [1] is at least 0.1. Moreover, the Emax on GR [2] (A549 SPAP cells) and on GR [3] was at least 40% throughout. The values for the IC50 at GR [2] (setting [4]), at GR [2] (setting [5]) and on glucocorticoid receptor were below 1 µM, below 0.316 µM and below 1 µM, respectively.

As for `Nc1c(C(=O)NCC(O)(CN(CCF)C(=O)c2ccccc2F)C(F)(F)F)cnn1-c1ccc(F)cc1` (racemic) [Example 2 (racemic), 5-Amino-1-(4-fluorophenyl)-N-[3,3,3-trifluoro-2-([(2-fluoroethyl)[(2-fluorophenyl)carbonyl]amino]methyl)-2-hydroxypropyl]-1H-pyrazole-4-carboxamide], in data set [1], the Kp at 5 min was at least 0.1. Moreover, the Emax on GR [2] (A549 SPAP cells) and at GR [3] was at least 40% throughout. Moreover, the IC50 was below 1 µM at GR [2] (setting [4]), below 0.316 µM on GR [2] (setting [5]) and below 1 µM at glucocorticoid receptor.
